Values after ≈ are worked out from the molar mass of the structure shown.
Columns and labels:
[1] = UV-Vis sterol binding assay
Protocol: UV-Vis is Binding Assay (FIG. 1A): The protocol for the sterol binding assay (UV-Vis) was developed in our lab. Compounds were dissolved in DMSO at a final concentration of 1 mM. Sterol were first dissolved in CHCl3 (>200 mM) and then diluted to 1 mM concentration with DMSO To synthesize the complex 1 ul of compound solution was taken in a clean eppendorf tube (2 ml) and sterol solution (volume depends on the stoichiometry) was added to it and the volume was made up to 20 ul with DMSO. 0.98 ml of PBS buffer was added to the Eppendorf tube and mixed properly. The absorbance of the solution was measured after 30 mins of incubation.

[2] = system: erythrocytes (whole human blood); experiment: MHC hemolysis assay; type: cell-based
Protocol: MHC (FIG. 1B and FIG. 10): The protocol for the hemolysis assay was adapted from the report of Paquet and coworkers (Chem. Eur. J. 2008, 14, 2465-2481). Whole human blood (sodium heparin) was purchased from Bioreclamation LLC (Westbury, NY) and stored at 4° C. and used within two days of receipt. To a 2.0 mL appendorf tube, 1 mL of whole human blood was added and centrifuged at 10,000 g for 2 minutes. The supernatant was removed and the erythrocyte pellet was washed with 1 mL of sterile saline and centrifuged at 10,000 g for 2 minutes. The saline wash was repeated for a total of three washes. The erythrocyte pellet was suspended in 1 mL of RBC buffer (10 mM NaH2PO4, 150 mM NaCl, 1 mM MgCl2, pH 7.4) to form the erythrocyte stock suspension.
Compounds were prepared as >15 mM stock solutions in DMSO and serially diluted to the following concentrations with DMSO: 7689, 5126, 2563, 2050, 1538, 1025, 769, 513, 384, 256, 205, 154, 103, 77, 51, 26 μM. To a 0.2 mL PCR tube, 24 μL of RBC buffer and 1 μL of compound stock solution were added, which gave final concentrations of 500, 300, 200, 100, 80, 60, 40, 30, 20, 15, 10, 8, 6, 4, 3, 2, 1 μM. Positive and negative controls were prepared by adding 1 μL of DMSO to MilliQ water or RBC buffer, respectively to 0.2 mL PCR tube. To each PCR tube, 0.63 μL. of the erythrocyte stock suspension was added and mixed by inversion. The samples were incubated at 37° C. for 2 hours. The samples were mixed by inversion and centrifuged at 10,000 g for 2 minutes. 15 μL of the supernatant from each sample was added to a 384-well place. Absorbances were read at 540 nm using a Biotek H1 Synergy Hybrid Reader (Winooski, VT), Experiments were performed in triplicate and the reported MHC represents an average of three experiments.

[3] = Blood plasma stability, human; type: in vitro ADME
[4] = system: A. flavus; experiment: MIC against moulds; type: cell-based
[5] = system: A. terreus; experiment: MIC against moulds; type: cell-based
[6] = system: A. calldoustus; experiment: MIC against moulds; type: cell-based; details: 6 isolates; AmB (AmBisome)
[7] = system: A. tubingensis; experiment: MIC against moulds; type: cell-based; details: for MIC A. tubingensis: 6 isolates, AmB (AmBisome)
[8] = system: Mucor janssenii; experiment: MIC against moulds; type: cell-based; details: 6 isolates, AmB (AmBisome)
[9] = system: Mucor velutinosus; experiment: MIC against moulds; type: cell-based; details: 6 isolates, AmB (AmBisome)
[10] = system: Histoplasma capsulatum; experiment: microbe, parasite or virus in culture; type: cell-based; details: for MIC Histoplasma capsulatum: 6 isolates, AmB (AmBisome)
[11] = system: Coccidioides immitis; experiment: microbe, parasite or virus in culture; type: cell-based; details: for MIC Coccidioides immitis: 6 isolates, AmB (AmBisome)
[12] = system: Coccidioides posadasii; experiment: microbe, parasite or virus in culture; type: cell-based; details: for MIC Coccidioides posadasii: 6 isolates, AmB (AmBisome)
[13] = system: Fusarium oxysporum; experiment: MIC against moulds; type: cell-based; details: 6 isolates, AmB (AmBisome)
[14] = system: Fusarium solani; experiment: MIC against moulds; type: cell-based
[15] = system: P. variotii MYA-3630 (QC); experiment: MIC against moulds; type: cell-based; details: 5 isolates, AmB (AmBisome)
[16] = system: Licht. Corymbifera; experiment: MIC against moulds; type: cell-based; details: 6 isolates, AmB (AmBisome)
[17] = system: Licht. Ramosa; experiment: MIC against moulds; type: cell-based; details: 6 isolates; AmB (AmBisome)
[18] = system: Syncephalastrum sp.; experiment: MIC against moulds; type: cell-based; details: 6 isolates, AmB (AmBisome)
[19] = system: Claophialophora bantiana; experiment: MIC against moulds; type: cell-based; details: 6 isolates; AmB (AmBisome)
[20] = system: Blastomyces dermatitidis; experiment: MIC against moulds; type: cell-based; details: 5 isolates, AmB (AmBisome)
[21] = system: Fonsecaeu sp.; experiment: MIC against moulds; type: cell-based; details: 6 isolates; AmB (AmBisome)
[22] = system: Talaromyces marneffei; experiment: MIC against moulds; type: cell-based; details: 6 isolates, AmB (AmBisome)
[23] = system: Apophysomyces sp.; experiment: MIC against moulds; type: cell-based; details: 3 isolates; AmB (AmBisome)
[24] = system: Candida auris; experiment: MIC against yeasts; type: cell-based
[25] = system: Candida parapsilosis; experiment: MIC against yeasts; type: cell-based
[26] = system: Rhodotorula sp.; experiment: MIC against yeasts; type: cell-based; details: 6 isolates, Table 3
[27] = system: Lomentospora prolificans; experiment: MIC against rare moulds resistant to AmB; type: cell-based; details: 6 isolates, Table 4
[28] = Liver microsome stability; details: rat, dog, monkey; for Liver microsome (T1/2, min): Mouse, human: All species

Compound: C[C@@H]1[C@H](O)[C@@H](C)/C=C/C=C/C=C/C=C/C=C/C=C/C=C/[C@H](OC2O[C@H](C)[C@@H](O)[C@H](N)[C@@H]2O)C[C@@H]2O[C@](O)(C[C@@H](O)C[C@@H](O)[C@H](O)CC[C@@H](O)C[C@@H](O)CC(=O)O[C@H]1C)C[C@H](O)[C@H]2C(=O)O (some centres unmarked) [AmB, Amphotericin B]
- Binds Cholesterol [1]: Yes
- MHC [2]: 8.4
- half-life ([3]; human, blood plasma, read-out: Blood Plasma Stability (T1/2, min) Human): > 289 min
- MIC ([4]; Aspergillus flavus, 3 isolates, Table 2A): 4 µM (≈ 3.7 µg/mL)
- MIC ([4]; Aspergillus flavus, 6 isolates, AmB (AmBisome)): 1.16 µM (≈ 1.07 µg/mL)
- MIC ([5]; Aspergillus terreus, 5 isolates, Table 2A): 7 µM (≈ 6.47 µg/mL)
- MIC ([5]; Aspergillus terreus, 6 isolates, AmB (AmBisome)): 3 µM (≈ 2.77 µg/mL)
- MIC [6]: 1.5 µM (≈ 1.39 µg/mL)
- MIC ([7]; Aspergillus tubingensis, read-out: MIC A. tubingensis): 0.125 µM (≈ 0.116 µg/mL)
- MIC ([8]; Mucor janssenii): 0.06 µM (≈ 0.0554 µg/mL)
- MIC ([9]; Mucor velutinosus): 0.08 µM (≈ 0.0739 µg/mL)
- MIC ([10]; Histoplasma capsulatum, read-out: MIC Histoplasma capsulatum): 0.06 µM (≈ 0.0554 µg/mL)
- MIC ([11]; Coccidioides immitis, read-out: MIC Coccidioides immitis): 0.125 µM (≈ 0.116 µg/mL)
- MIC ([12]; Coccidioides posadasii, read-out: MIC Coccidioides posadasii): 0.06 µM (≈ 0.0554 µg/mL)
- MIC ([13]; Fusarium oxysporum): 1.5 µM (≈ 1.39 µg/mL)
- MIC ([14]; Fusarium solani, 2 isolates, Table 3A): 3 µM (≈ 2.77 µg/mL)
- MIC ([14]; Fusarium solani, 6 isolates, AmB (AmBisome)): 1.33 µM (≈ 1.23 µg/mL)
- MIC ([15]; Paecilomyces variotii): 1 µM (≈ 0.924 µg/mL)
- MIC ([16]; Lichtheimia corymbifera): 0.23 µM (≈ 0.213 µg/mL)
- MIC [17]: 0.15 µM (≈ 0.139 µg/mL)
- MIC ([18]; Syncephalastrum): 0.06 µM (≈ 0.0554 µg/mL)
- MIC [19]: 0.375 µM (≈ 0.347 µg/mL)
- MIC ([20]; Blastomyces dermatitidis): < 0.03 µM
- MIC [21]: < 0.03 µM
- MIC ([22]; Talaromyces marneffei): 0.09 µM (≈ 0.0832 µg/mL)
- MIC [23]: 0.75 µM (≈ 0.693 µg/mL)
- MIC ([24]; Candidozyma auris, 10 isolates, Table 3): 1.2 µM (≈ 1.11 µg/mL)
- MIC ([24]; Candidozyma auris, 15 isolates, Table 3A): 2.9 µM (≈ 2.68 µg/mL)
- MIC ([25]; Lodderomyces parapsilosis, 6 isolates, Table 3A): 0.5 µM (≈ 0.462 µg/mL)
- MIC ([25]; Lodderomyces parapsilosis, 8 isolates, Table 3): 1.1 µM (≈ 1.02 µg/mL)
- MIC ([26]; Rhodotorula): 1 µM (≈ 0.924 µg/mL)
- MIC ([27]; Lomentospora prolificans): > 16 µM
- half-life ([28]; mouse, human, liver microsomes): > 2.42 h

Compound: CC1C=CC=CC=CC=CC=CC=CC=CC(OC2OC(C)C(O)C(N)C2O)CC2OC(O)(CC(O)CC(O)C(O)CCC(O)CC(O)CC(=O)OC(C)C(C)C1O)CC(O)C2C(=O)NC(CO)(CO)CO (centres unmarked) [Compound 2]
- Binds Cholesterol [1]: No
- MHC [2]: >60
- Blood Plasma Stability (T1/2, min) Human [3]: > 289 min
- MIC ([4]; 6 isolates, AmB (AmBisome)): 1.67 µM (≈ 1.72 µg/mL)
- MIC ([5]; 6 isolates, AmB (AmBisome)): 2.3 µM (≈ 2.36 µg/mL)
- MIC [6]: 2.33 µM (≈ 2.39 µg/mL)
- MIC A. tubingensis [7]: 0.92 µM (≈ 0.945 µg/mL)
- MIC [8]: 0.92 µM (≈ 0.945 µg/mL)
- MIC [9]: 1.17 µM (≈ 1.2 µg/mL)
- MIC Histoplasma capsulatum [10]: 0.08 µM (≈ 0.0822 µg/mL)
- MIC Coccidioides immitis [11]: 0.27 µM (≈ 0.277 µg/mL)
- MIC Coccidioides posadasii [12]: 0.5 µM (≈ 0.514 µg/mL)
- MIC [13]: 13.3 µM (≈ 13.7 µg/mL)
- MIC ([14]; 6 isolates, AmB (AmBisome)): 14 µM (≈ 14.4 µg/mL)
- MIC [15]: 2.67 µM (≈ 2.74 µg/mL)
- MIC [16]: 1 µM (≈ 1.03 µg/mL)
- MIC [17]: 0.75 µM (≈ 0.77 µg/mL)
- MIC [18]: 1 µM (≈ 1.03 µg/mL)
- MIC [19]: 1.83 µM (≈ 1.88 µg/mL)
- MIC [20]: 0.6 µM (≈ 0.616 µg/mL)
- MIC [21]: <0.03 µM
- MIC [22]: 0.21 µM (≈ 0.216 µg/mL)
- MIC [23]: 8.3 µM (≈ 8.53 µg/mL)
- MIC ([24]; 10 isolates, Table 3): 2.6 µM (≈ 2.67 µg/mL)
- MIC ([25]; 8 isolates, Table 3): 1.6 µM (≈ 1.64 µg/mL)
- MIC [26]: 3.7 µM (≈ 3.8 µg/mL)
- MIC [27]: >16 µM
- Liver microsome (T1/2, min) [28]: >145 min

Compound: CC1C=CC=CC=CC=CC=CC=CC=CC(OC2OC(C)C(O)C(N)C2O)CC2OC(O)(CC(O)CC(O)C(O)CCC(O)CC(O)CC(=O)OC(C)C(C)C1O)CC(O)C2C(=O)NC(CO)CO (centres unmarked) [Compound 1]
- Binds Cholesterol [1]: No
- MHC [2]: >100
- Blood Plasma Stability (T1/2, min) Human [3]: >289; >289 min
- MIC ([4]; 6 isolates, AmB (AmBisome)): 1.67 µM (≈ 1.67 µg/mL)
- MIC ([5]; 6 isolates, AmB (AmBisome)): 2 µM (≈ 1.99 µg/mL)
- MIC [6]: 2.17 µM (≈ 2.16 µg/mL)
- MIC A. tubingensis [7]: 0.83 µM (≈ 0.828 µg/mL)
- MIC [8]: 0.5 µM (≈ 0.499 µg/mL)
- MIC [9]: 0.67 µM (≈ 0.668 µg/mL)
- MIC Histoplasma capsulatum [10]: 0.06 µM (≈ 0.0598 µg/mL)
- MIC Coccidioides immitis [11]: 0.27 µM (≈ 0.269 µg/mL)
- MIC Coccidioides posadasii [12]: 0.25 µM (≈ 0.249 µg/mL)
- MIC [13]: 6 µM (≈ 5.98 µg/mL)
- MIC ([14]; 6 isolates, AmB (AmBisome)): 5.67 µM (≈ 5.65 µg/mL)
- MIC [15]: 2 µM (≈ 1.99 µg/mL)
- MIC [16]: 0.5 µM (≈ 0.499 µg/mL)
- MIC [17]: 0.58 µM (≈ 0.578 µg/mL)
- MIC [18]: 0.5 µM (≈ 0.499 µg/mL)
- MIC [19]: 1.17 µM (≈ 1.17 µg/mL)
- MIC [20]: 0.25 µM (≈ 0.249 µg/mL)
- MIC [21]: <0.03 µM
- MIC [22]: 0.12 µM (≈ 0.12 µg/mL)
- MIC [23]: 6.8 µM (≈ 6.78 µg/mL)
- MIC ([24]; 10 isolates, Table 3): 2.6 µM (≈ 2.59 µg/mL)
- MIC ([25]; 8 isolates, Table 3): 1.8 µM (≈ 1.79 µg/mL)
- MIC [26]: 2.8 µM (≈ 2.79 µg/mL)
- MIC [27]: >16 µM
- Liver microsome (T1/2, min) [28]: >145 min

From patent US12655173B2, “Hybrid amide derivatives of amphotericin B” (priority 2020, dated 2026)
